Experimental data reported in patent publication US20210236532A1, “THERAPEUTIC AGENT FOR FRONTOTEMPORAL LOBAR DEGENERATION, METHOD FOR SCREENING THERAPEUTIC AGENT FOR FRONTOTEMPORAL LOBAR DEGENERATION AND METHOD FOR TREATING FRONTOTEMPORAL LOBAR DEGENERATION” (National University Corporation Tokyo Medical and Dental …, priority 2018, published 2021).

Key:
Type in all cases: in vivo
PGRN-KI mice [1] = assay: Fear conditioning experiment (freezing reaction)
Experimental: (§1) The following two types of behavioral experiments (fear conditioning experiment and Morris water maze test) were performed, and an impaired cognitive response was found in the PGRN-KI mice of 12 weeks or older. Such an impaired response is a symptom similarly seen in frontotemporal lobar degeneration. It is to be noted that all behavioral tests are carried out according to the method indicated by Ito H. et al. (Mol Psychiatry. 2015 April; 20 (4): 459-471).
A fear conditioning experiment was performed with the PGRN-KI mice and control mice (C57BL/6J mice without the knock-in). Specifically, the mice received electrical stimulation (0.4 mA, 2 s) on their paws along with sound stimulation (65 dB white noise, 30 s). Twenty-four hours later, the frequency of the freezing reaction in the mice was measured when the mice were subjected to the sound stimulation without the electrical stimulation in the same chamber. […] This means that the cognitive response of the PGRN-KI mice was impaired as compared with the control mice. […]

PGRN-KI mice [2] = assay: Morris water maze test
Experimental: as §1
A Morris water maze test was performed with the PGRN-KI mice and control mice (C57BL/6J mice without the knock-in). Specifically, the mice received a 60-second trial four times per day for 5 days, and the time period taken for each mouse to reach the platform was measured. […] This means that the cognitive response of the PGRN-KI mice was impaired as compared with the control mice.
(§2) The knockdown of each gene was performed according to the following procedures: Lentiviral particles (2×10^5 titer units/100 μl) containing scrambled shRNA (sc-108080, manufactured by Santa Cruz Biotechnology), Tau-shRNA (sc-430402-V, manufactured by Santa Cruz Biotechnology), B-Raf shRNA (sc-63294-V, manufactured by Santa Cruz Biotechnology), or Tyro3-siRNA (iV037848, manufactured by ABM) were diluted to 1:4 with ACSF buffer (NaCl 125 mM; KCl 2.5 mM; NaH2PO4 1.25 mM; MgCl2 1 mM; CaCl2) 1 mM; NaHCO326 mM; and glucose 25 mM). […]

PGRN-KI mice [3] = assay: Morphological analysis of spines (two-photon excitation microscope, IMARIS)
Experimental: as §2, with “mM). Further, a plasmid vector (10 μg) containing scrambled shRNA (TG501653, manufactured by OriGene), PKCα-shRNA (TG501653, manufactured by OriGene), or Gas6-shRNA (sc-35451-SH, manufactured by Santa Cruz Biotechnology) was dissolved in 100 μl of in vivo-jetPEI (201-10G, manufactured by Polyplus-transfection).” for “mM).”
Images of dendrites from the mice (at 12 weeks of age) knocked down for each gene were acquired using a two-photon excitation microscope. In addition, the number of spines was measured using “IMARIS software” (IMARIS 7.2.2, manufactured by Bitplane GmbH). […]
Images of dendrites from the mice (at 12 weeks of age) in each administered group were acquired using a two-photon excitation microscope. In addition, the number of spines was measured using “IMARIS software” (IMARIS 7.2.2, manufactured by Bitplane GmbH). […]

[4] = PGRN-KI mice, treated vs untreated/unknocked-down PGRN-KI mice
[5] = control mice (C57BL/6J without the knock-in), with or without agent

## Cn1c2ccccc2c2c3c(c4c5ccccc5n(CCC#N)c4c21)CNC3=O [Go6976]
PGRN-KI mice [1]; [4]
  cognitive response in the fear conditioning experiment: significantly improved
PGRN-KI mice [1]; [5]
  cognitive response in the fear conditioning experiment: no change
PGRN-KI mice [2]; [4]
  cognitive response in the Morris water maze test: significantly improved
PGRN-KI mice [2]; [5]
  cognitive response in the Morris water maze test: no change
PGRN-KI mice [3]; PGRN-KI mice at 12 weeks of age, treated vs untreated/unknocked-down PGRN-KI mice
  number of spines: markedly higher number of spines
PGRN-KI mice [3]; control mice (C57BL/6J without the knock-in) at 12 weeks of age, with or without agent
  number of spines: no change
